Assays:
[1] = test system: T4 lymphocytes (CEM cell line); assay: Cell growth / toxicity control in uninfected T4 lymphocytes (CEM), XTT-formazan; type: cell-based; conditions: Homo sapiens, CCRF-CEM; for IC50: 144 h, read-out: IC50 (50% inhibitory concentration for cell growth), uninfected CEM cells, 6 days, XTT, approximate values; for activity at 20 µM: dose 2.00 × 10^-5 Molar; for activity at 20 µM / activity at 2 µM / activity at 0.2 µM / activity at 0.02 µM / activity at 6.32 µM / activity at 0.633 µM / activity at 0.0634 µM / activity at 0.00635 µM: read-out: Percent of Control, Uninfected; for activity at 2 µM: dose 2.00 × 10^-6 Molar; for activity at 0.2 µM: dose 2.00 × 10^-7 Molar; for activity at 0.02 µM: dose 2.00 × 10^-8 Molar; for activity at 6.32 µM: dose 6.32 × 10^-6 Molar; for activity at 0.633 µM: dose 6.33 × 10^-7 Molar; for activity at 0.0634 µM: dose 6.34 × 10^-8 Molar; for activity at 0.00635 µM: dose 6.35 × 10^-9 Molar
Description: (§1) The NCI procedure is fully described, for example, in a bulletin provided by the National Institutes of Health, National Cancer Institute, Bethesda, Md. 20892, all of which is incorporated herein by reference. As related in the NCI bulletin, the procedure is based on O. W. Weislow et al., "New soluble-formazan assay for HIV-1 cytopathic effects: application to high flux screening of synthetic and natural products for AIDS-antiviral activity", J. Natl. Cancer Inst. 81:577-586 (1989), and is used to test for compounds active against human immunodeficiency virus (HIV), and is designed to detect compounds active at any stage of the virus reproductive cycle. As further related in the NCI bulletin, the assay includes killing of T4 lymphocytes by HIV. Amounts of HIV are added to cells, with a minimum of two cycles of virus reproduction found to be necessary to obtain the required cell killing. Compounds that interact with virions, cells, or virus gene-products to interfere with viral activities will protect cells from cytolysis. All were compared with a positive (e.g., AZT-treated) control evaluation at the same time under identical conditions. The procedure is set forth as follows:
(§2) A candidate compound is first dissolved in a suitable solvent, preferably dimethyl sulfoxide, then diluted 1:100 in cell culture medium before preparing serial half-log10 dilutions. T4 lymphocytes (CEM cell line) are then added and after a brief interval HIV-1 is added, resulting in a 1:200 final dilution of the compound. Uninfected cells with the compound serve as a toxicity control, and infected and uninfected without the compound serve as basic controls. Cultures are then incubated at 37° in a 5% carbon dioxide atmosphere for 6 days. The tetrazolium salt, XTT, is added to all wells, and cultures are incubated to allow formazan color development by viable cells. Individual wells are analyzed spectrophotometrically to quantitate formazan product, and in addition are viewed microscopically for detection of viable cells and confirmation of protective activity. Drug-treated virus-infected cells are compared with drug-treated noninfected cells and with other appropriate controls (untreated infected and untreated noninfected cells, drug-containing wells without cells, etc.) on the same plate. Data are reviewed in comparison with other tests performed at the same time and a determination as to activity is made.

[2] = test system: HIV-1; assay: NCI in vitro anti-HIV drug screen: XTT-formazan assay, protection of T4 lymphocytes (CEM) from HIV-1 cytopathic effects; type: cell-based, human immunodeficiency virus (HIV-1); conditions: for EC50 / inhibition at 20 µM / inhibition at 2 µM / inhibition at 0.2 µM / inhibition at 0.02 µM / inhibition at 6.32 µM / inhibition at 0.633 µM / inhibition at 0.0634 µM / inhibition at 0.00635 µM: Human immunodeficiency virus 1, CCRF-CEM; for EC50: 144 h, HIV-1 infected CEM cells, 6 days, XTT, approximate values, read-out: EC50 (50% effective concentration against HIV cytopathic effects); for inhibition at 20 µM / activity at 20 µM: dose 2.00 × 10^-5 Molar; for inhibition at 20 µM / inhibition at 2 µM / inhibition at 0.2 µM / inhibition at 0.02 µM / inhibition at 6.32 µM / inhibition at 0.633 µM: read-out: Percent of Protection; for inhibition at 2 µM / activity at 2 µM: dose 2.00 × 10^-6 Molar; for inhibition at 0.2 µM / activity at 0.2 µM: dose 2.00 × 10^-7 Molar; for inhibition at 0.02 µM / activity at 0.02 µM: dose 2.00 × 10^-8 Molar; for inhibition at 6.32 µM / activity at 6.32 µM: dose 6.32 × 10^-6 Molar; for inhibition at 0.633 µM / activity at 0.633 µM: dose 6.33 × 10^-7 Molar; for inhibition at 0.0634 µM: read-out: Percent of Protection, dose 6.34 × 10^-8 Molar; for inhibition at 0.00635 µM: read-out: Percent of Protection, dose 6.35 × 10^-9 Molar; for activity at 20 µM / activity at 2 µM / activity at 0.2 µM / activity at 0.02 µM / activity at 6.32 µM / activity at 0.633 µM / activity at 0.0634 µM / activity at 0.00635 µM: Human immunodeficiency virus 1, Lymphocyte, read-out: Percent of Control, Infected; for activity at 0.0634 µM: dose 6.34 × 10^-8 Molar; for activity at 0.00635 µM: dose 6.35 × 10^-9 Molar; for TI50 (IC/EC), Therapeutic Index: IC50/EC50
Procedure: Compounds of the present invention were evaluated for anti-HIV efficacy by the National Cancer Institute's (NCI) In Vitro Anti AIDS Drug Discovery Program.
as §1, §2

Row | Compound | IC50 [1] [µM] | activity at 20 µM [1] [%] | activity at 2 µM [1] [%] | activity at 0.2 µM [1] [%] | activity at 0.02 µM [1] [%] | activity at 6.32 µM [1] [%] | activity at 0.633 µM [1] [%] | activity at 0.0634 µM [1] [%] | activity at 0.00635 µM [1] [%] | EC50 [2] [nM] | inhibition at 20 µM [2] [%] | inhibition at 2 µM [2] [%] | inhibition at 0.2 µM [2] [%] | inhibition at 0.02 µM [2] [%] | inhibition at 6.32 µM [2] [%] | inhibition at 0.633 µM [2] [%] | inhibition at 0.0634 µM [2] [%] | inhibition at 0.00635 µM [2] [%] | activity at 20 µM [2] [%] | activity at 2 µM [2] [%] | further results
1 | O=[N+]([O-])c1ccccc1S(=O)(=O)c1cc(Cl)cc2c1NCCC2 [Compound 47, 8-(2-nitrophenylsulfonyl)6chloro-1,2,3,4-tetrahydroquinoline] | > 20 | 96.1 | 92.6 | 87.1 | 91.2 | 104 | 86.3 | 92 | 91.2 | 312 | 86.2 | 88.8 | 25.3 | 6 | 102 | 90 | 8.87 | 3 | 86.2 | 88.8 | activity at 0.2 µM [2]: 25.3%; activity at 0.02 µM [2]: 6%; activity at 6.32 µM [2]: 102%; activity at 0.633 µM [2]: 90%; activity at 0.0634 µM [2]: 8.87%; activity at 0.00635 µM [2]: 3%; TI50 (IC/EC), Therapeutic Index [2]: 6.41 × 10^+1
2 | Cc1cc2c(c(S(=O)(=O)c3ccccc3[N+](=O)[O-])c1)NCCC2 [Compound 50, 8-(2-nitrophenyIsulfonyl)6-methyl-1,2,3,4-tetrahydroquinoline] | > 20 | 101 | 91 | 87.1 | 88.4 | 91.2 | 89.3 | 90.5 | 90.2 | 75.1 | 97.4 | 107 | 86.3 | -2.76 | 109 | 84.2 | 44.1 | -3.62 | 97.6 | 106 | activity at 0.2 µM [2]: 87.6%; activity at 0.02 µM [2]: 6.49%; activity at 6.32 µM [2]: 108%; activity at 0.633 µM [2]: 85.7%; activity at 0.0634 µM [2]: 49.1%; activity at 0.00635 µM [2]: 5.71%; TI50 (IC/EC), Therapeutic Index [2]: > 2.66 × 10^-2

Source: patent US6303630A, “Diarylsulfone non-nucleoside reverse transcriptase inhibitors of human immunodeficiency virus” (University of the Sciences in Philadelphia, priority 2000, dated 2001)
